# Source: patent US11319303B2 (WIGEN BIOMEDICINE TECHNOLOGY (SHANGHAI) CO., LTD., priority 2017, dated 2022)
# Biological target: LC3B (Homo sapiens, UniProt Q9GZQ8)
# Test: Fluorescence Polarization (FP) Assay: displacement of FITC-labeled peptide from GST-LC3B
# Type: binding
# Conditions: not given
# Procedure: The compounds of the present invention for regulating the autophagy-related protein LC3B were tested by Fluorescence Polarization (FP) Assay.
# Fluorescence Polarization (FP) Assay Test
row,Compound,IC50
1,"CN(C)CCNC=C1C(=O)CC(c2cccc(Cl)c2F)CC1=O (stereo not shown) [Compound 384, 5-(3-chloro-2-fluorophenyl)-2-(((2-(dimethylamino)ethyl)amino)methylene) cyclohexane-1,3-dione]",< 3 µM
2,"COc1ccc(C2CC(=O)C(=CNCCN(C)C)C(=O)C2)c(F)c1F (stereo not shown) [Compound 403, 5-(2,3-difluoro-4-methoxyphenyl)-2-(((2-(dimethylamino)ethyl)amino)methylene) cyclohexane-1,3-dione]",< 3 µM

# Same assay, conditions: Fluorescence Polarization assay; GST-LC3B 180 nM, FITC-labeled peptide 18 nM, 25° C.; read-out: IC50
row,Compound,IC50
1,"Cc1ccc(NC(=O)CN2CCN(CCNC=C3C(=O)CC(c4ccccc4Br)CC3=O)CC2)cc1 (stereo not shown) [Compound 372, 2-(4-(2-(((4-(2-bromophenyl)-2,6-dioxocyclo-hexylidene)methyl)amino)ethyl)piperazin-1-yl)-N-(p-tolyl) acetainide]",< 3 µM
2,"CNc1cccc(C2CC(=O)C(=CNCCN3CCN(CCO)CC3)C(=O)C2)c1Br (stereo not shown) [Compound 374, 5-(2-bromo-3-(methylamino)phenyl)-2-(((2-(4-(2-hydroxyethyl)piperazin-1-yl)ethyl)amino)methylene) cyclohexane-1,3-dione]",< 3 µM
3,"O=C1CC(c2c[nH]c3cccc(Br)c23)CC(=O)C1=CNCCN1CCN(CCO)CC1 (stereo not shown) [Compound 375, 5-(4-bromo-1H-indol-3-yl)-2-(((2-(4-(2-hydroxyethyl)piperazin-1-yl)ethyl)amino)methylene) cyclohexane-1,3-dione]",< 3 µM
4,"CN(C)CCNC=C1C(=O)CC(c2cc(C(F)(F)F)ccc2F)CC1=O (stereo not shown) [Compound 376, 2-(((2-(dimethylamino)ethyl)amino)methylene)-5-(2-fluoro-5-(trifluoromethyl)phenyl) cyclohexane-1,3-dione]",< 3 µM
5,"CN(C)CCNC=C1C(=O)CC(c2c(C(F)(F)F)ccc(Cl)c2Cl)CC1=O (stereo not shown) [Compound 377, 5-(2,3-dichloro-6-(trifluoromethyl)phenyl)-2-(((2-(dimethylamino)ethyl)amino)methylene) cyclohexane-1,3-dione]",< 3 µM
6,"CN(C)CCNC=C1C(=O)CC(c2c(C(F)(F)F)ccc(Cl)c2F)CC1=O (stereo not shown) [Compound 378, 5-(3-chloro-2-fluoro-6-(trifluoromethyl)phenyl)-2-(((2-(dimethylamino)ethyl)amino)methylene) cyclohexane-1,3-dione]",< 3 µM
7,"COc1cc(Br)c(C2CC(=O)C(=CNCCN(C)C)C(=O)C2)cc1OC (stereo not shown) [Compound 379, 5-(2-bromo-4,5-dimethoxyphenyl)-2-(((2-(dimethylamino)ethyl)amino)methylene) cyclohexane-1,3-dione]",< 3 µM
8,"Cc1ccc(NC(=O)C2CC(=O)C(=CNCCN(C)C)C(=O)C2)cc1F (stereo not shown) [Compound 380, 4-(((2-(dimethylamino)ethyl)amino)methylene)-N-(3-fluoro-4-methylphenyl)-3,5-dioxocyclohexane-1-carboxamide]",3 to 15 µM
9,"CN(C)CCNC=C1C(=O)CC(c2cc(C(F)(F)F)ccc2Cl)CC1=O (stereo not shown) [Compound 381, 5-(2-chloro-5-(trifluoromethyl)phenyl)-2-(((2-(dimethylamino)ethyl)amino)methylene) cyclohexane-1,3-dione]",< 3 µM
10,"CN(C)CCNC=C1C(=O)CC(c2ccc(Cl)cc2F)CC1=O (stereo not shown) [Compound 382, 5-(4-chloro-2-fluorophenyl)-2-(((2-(dimethylamino)ethyl)amino)methylene) cyclohexane-1,3-dione]",< 3 µM
11,"CN(C)CCNC=C1C(=O)CC(c2c(F)cccc2F)CC1=O (stereo not shown) [Compound 383, 5-(2,6-difluorophenyl)-2-(((2-(dimethylamino)ethyl)amino)methylene) cyclohexane-1,3-dione]",< 3 µM
12,"CN(C)CCNC=C1C(=O)CC(c2ccccc2N)CC1=O (stereo not shown) [Compound 386, 5-(2-aminophenyl)-2-(((2-(dimethylamino)ethyl)amino)methylene) cyclohexane-1,3-dione]",< 3 µM
13,"O=C1CC(c2cccc(F)c2F)CC(=O)C1=CNCCN1CCN(CCO)CC1 (stereo not shown) [Compound 387, 5-(2,3-difluorophenyl)-2-(((2-(4-(2-ethoxyl)piperazin-1-yl)ethyl)amino)methylene) cyclohexane-1,3-dione]",< 3 µM
14,"CN(C)CCNC=C1C(=O)CC(c2cscc2Br)CC1=O (stereo not shown) [Compound 388, 5-(4-bromothiophen-3-yl)-2-(((2-(dimethylamino)ethyl)amino)methylene) cyclohexane-1,3-dione]",< 3 µM
15,CN(C)CCNC=C1C(=O)CC(C(=O)Nc2ccc(-c3ccccc3)cc2)CC1=O (stereo not shown) [Compound 389],< 3 µM
16,"CN(C)CCNC=C1C(=O)CC(c2cc(Cl)ccc2F)CC1=O (stereo not shown) [Compound 390, 5-(5-chloro-2-fluorophenyl)-2-(((2-(dimethylamino)ethyl)amino)methylene) cyclohexane-1,3-dione]",< 3 µM
17,"O=C1CC(c2c[nH]c3cccc(Cl)c23)CC(=O)C1=CNCCN1CCN(CCO)CC1 (stereo not shown) [Compound 394, 5-(4-chloro-1H-indol-3-yl)-2-(((2-(4-(2-ethoxyl)piperazin-1-yl)ethyl)amino)methylene) cyclohexane-1,3-dione]",< 3 µM

# The next lines start with the values.
row,IC50,Compound
1,15 to 100 µM,"O=C1CC(C(O)c2ccccc2)C(=O)/C1=C\NCCN1CCN(CCO)CC1 (stereo not shown) [Compound 391, 4-(hydroxy(phenyl)methyl)-2-(((2-(4-(2-ethoxyl)piperazin-1-yl)ethyl)amino)methylene) cyclopentane-1,3-dione]"
2,< 3 µM,"O=C1CC(c2cc3[nH]ccc3cc2Br)CC(=O)C1=CNCCN1CCN(CCO)CC1 (stereo not shown) [Compound 392, 5-(5-bromo-1H -indol-6-yl)-2-(((2-(4-(2-ethoxyl)piperazin-1-yl)ethyl)amino)methylene) cyclohexane-1,3-dione]"
3,3 to 15 µM,"CCN(CC)CCCC(C)N/C=C1\C(=O)Nc2cc(Cl)ccc2C1=O (stereo not shown) [Compound 395, 7-chloro-3-(((5-(diethylamino)penta-2-yl)amino)methylene) quinoline-2,4 (1H,3H)-dione]"
4,< 3 µM,"CN(C)CCNC=C1C(=O)CC(c2c(Cl)ccc(Cl)c2Cl)CC1=O (stereo not shown) [Compound 397, 2-(((2-(dimethylamino)ethyl)amino)methylene)-5-(2,3,6-trichlorophenyl) cyclohexane-1,3-dione]"
5,< 3 µM,"CN(C)CCNC=C1C(=O)CC(c2c(Cl)ccc(F)c2F)CC1=O (stereo not shown) [Compound 398, 5-(6-chloro-2,3-difluorophenyl)-2-(((2-(dimethylamino)ethyl)amino)methylene) cyclohexane-1,3-dione]"
6,< 3 µM,"O=C1CC(c2cccc(Cl)c2Cl)CC(=O)C1=CNCCN1CCN(CCO)CC1 (stereo not shown) [Compound 400, 5-(2,3-dichlorophenyl)-2-(((2-(4-(2-ethoxyl)piperazin-1-yl)ethyl)amino)methylene) cyclohexane-1,3-dione]"
7,< 3 µM,"CN(C)CCNC=C1C(=O)CC(c2ccc(F)c(F)c2F)CC1=O (stereo not shown) [Compound 401, 2-(((2-(dimethylamino)ethyl)amino)methylene)-5-(2,3,4-trifluorophenyl) cyclohexane-1,3-dione]"
8,< 3 µM,"CN(C)CCNC=C1C(=O)CC(c2c(F)c(F)cc(F)c2F)CC1=O (stereo not shown) [Compound 402, 2-(((2-(dimethylamino)ethyl)amino)methylene)-5-(2,3,5,6-tetrafluorophenyl) cyclohexane-1,3-dione]"
9,< 3 µM,"CC(F)(F)c1ccccc1C1CC(=O)C(=CNCCN2CCN(CCO)CC2)C(=O)C1 (stereo not shown) [Compound 404, 5-(2-(1,1-difluoroethyl)phenyl)-2-(((2-(4-(2-ethoxyl)piperazin-1-yl)ethyl)amino)methylene) cyclohexane-1,3-dione]"
